Experimental data taken from patent US20250352577A1, “TUMOR NEOANTIGENIC PEPTIDES AND USES THEREOF” (MNEMO THERAPEUTICS, priority 2021, published 2025).
Entries after “also recorded” stand apart in the source; their conditions may differ.

T1: TE-exon fusion (JET / chimeric) transcript-derived peptide, LUAD (peptide 17) peptide on HLA-A*02:01 (human)
T1 peptide: LLDRFGYHV

T2: TE-exon fusion (JET / chimeric) transcript-derived peptide, LUAD (peptide 53) peptide on HLA-A*02:01 (human)
T2 peptide: MLVTWELAL

B1: TCR number 1 (Table 4bis) (TCR)
alpha TRAV41*01 TRAJ34*01 CDR3: CAVLLDNTDKLIF
beta TRBV6-5*01 TRBJ-2*01 CDR3: CASSRLQGALELFF
B2: TCR number 4 (Table 4bis) (TCR)
alpha TRAV35*01 TRAJ54*01 CDR3: CAGQLAGAQKLVF
beta TRBV13*01 TRBJ2-5*01 CDR3: CASSPSRDGQETQYF

Columns and labels:
[1] = system: CD8+ T cells from HLA-A2+ healthy donors; experiment: Priming of naive CTLs (immunogenicity assay) with two-colour tetramer staining; format: cell-based, human; conditions: for percentage of tetramer positive cells among total CD8+ T cells compared to control: one donor, control co-culture without peptides; for specific CD8+ T cell expansion (immunogenicity): total of 6 healthy donors, FIG. 11A
Procedure: Priming of naïve CTLs. […] CD14+, CD4+ and CD8+ cells were purified by positive selection using magnetic beads (Miltenyi Biotec). While CD4+ and CD8+ T cells were cryopreserved until the experiment day, CD14+ fraction was cultured in the presence of IL-4 (50 ng/mL) and GM-CSF (10 ng/mL) at 10^6 cells/mL during 5 days to obtain moDCs. After this period of time, the moDCs were maturated with LPS and incubated with synthetic ER-derived peptides at a final concentration of 1 μg/mL for 2 hours.
Tetramer Staining. Cells were resuspended in PBS, stained with Live/Dead Aqua-405 nm (ThermoFisher) during 20 minutes at 4° C. and washed once. After that, cells were resuspended in PBS-1% BSA containing the mix of SA-coupled tetramers and incubated in the dark at room temperature during 20 minutes. Without further washing, surface antibodies were added in PBS-1% BSA and cells were incubated 20 minutes in the dark at 4° C. […] Finally, cells were washed twice and resuspended in FACS buffer for flow cytometry analysis.
Priming assays were thus performed to test the ability of identified peptides to expand specific cytotoxic T cells. […] After loading the moDCs with a mix of synthetic peptides, autologous co-culture was performed with CD4+ and CD8+ T cells. Finally, the expansion of specific CD8+ T cells was analysed by flow cytometry using two-colours tetramer staining. As a control of specific expansion, the co-culture was performed in the absence of peptides.
The same experiment was performed in order to evaluate the response in additional 5 donors. […] As a positive of expansions, mutated Melan-A peptide ([…]) were used.

[2] = system: CD8+ T cells of LUAD patients; experiment: Tetramer staining of CD8+ T cells from LUAD patient samples and TILs; format: cell-based, human; conditions: TILs expanded with peptide mix + IL-2 or IL-2 only
Procedure: Tetramer Staining. Cells were resuspended in PBS, stained with Live/Dead Aqua-405 nm (ThermoFisher) during 20 minutes at 4° C. and washed once. After that, cells were resuspended in PBS-1% BSA containing the mix of SA-coupled tetramers and incubated in the dark at room temperature during 20 minutes. Without further washing, surface antibodies were added in PBS-1% BSA and cells were incubated 20 minutes in the dark at 4° C. Surface antibodies were a combination of anti-CD3-BV650+ anti-CD8-PECy7 in combination with anti-CCR7-AF700+ anti-CD45RA-BUV395 when required. Finally, cells were washed twice and resuspended in FACS buffer for flow cytometry analysis.
Tissues and Blood samples. […]
Tumor infiltrating lymphocytes (TILs) cultures. […] Cells were feed/split as necessary during 15-20 days and cryopreserve or analyzed for tetramer staining.
In a first set of experiments tumor infiltrating lymphocytes (TILs) expanded with a mix of TE-derived peptides and Il-2, or only with Il-2, were analyzed by tetramer staining. […]
In a second cohort of 5 primary, untreated, LUAD tumor, juxta-tumor, tumor-draining lymph node and blood samples from LUAD cancer HLA-A2+ patients were analyzed. […]

[3] = molecular target: T1, TE-exon fusion (JET / chimeric) …; experiment: multimer staining
[4] = molecular target: T2, TE-exon fusion (JET / chimeric) …; experiment: multimer staining

| Molecule | specific CD8+ T cell expansion (immunogenicity) [1] | further results |
| --- | --- | --- |
| AILPKANTV | specific CD8+ T expansions | percentage of tetramer positive cells among total CD8+ T cells compared to control [1]: increase in at least one magnitude order |
| AMDGKELSL | specific CD8+ T expansions | – |
| FLGTRVTRV | specific CD8+ T expansions | – |
| FLIVAEILI | – | percentage of tetramer positive cells among total CD8+ T cells compared to control [1]: increase in at least one magnitude order |
| GLLNISHTA | specific CD8+ T expansions | – |
| GLPSHVELA | specific CD8+ T expansions; also recorded: immunogenic | tetramer positive CD8+ T cells in TILs of LUAD patients [2]: TILs recognizing |
| ILHSLVTGV | specific CD8+ T expansions | – |
| ILSGYGPCV | specific CD8+ T expansions | – |
| ILTASITSI | specific CD8+ T expansions | – |
| LLDRFGYHV | specific CD8+ T expansions | – |
| LLGETKVYV | specific CD8+ T expansions | percentage of tetramer positive cells among total CD8+ T cells compared to control [1]: increase in at least one magnitude order |
| LLHLESFLV | specific CD8+ T expansions | – |
| LLTSWHLYL | specific CD8+ T expansions | – |
| MLMKTVWQA | specific CD8+ T expansions | – |
| MLVTWELAL | specific CD8+ T expansions | – |
| RLADHLSFC | specific CD8+ T expansions; also recorded: immunogenic | percentage of tetramer positive cells among total CD8+ T cells compared to control [1]: increase in at least one magnitude order |
| RLLHLESFL | specific CD8+ T expansions | percentage of tetramer positive cells among total CD8+ T cells compared to control [1]: increase in at least one magnitude order |
| RQAPGFHHA | specific CD8+ T expansions | – |
| SLMQSGSPV | specific CD8+ T expansions | – |
| VLLTNTIWL | specific CD8+ T expansions | – |
| VLMWTMAHL | specific CD8+ T expansions | – |
| YLPYFLKSL | specific CD8+ T expansions | – |
| YLQGLPLPL | specific CD8+ T expansions | – |
| YLWTTFFPL | specific CD8+ T expansions | percentage of tetramer positive cells among total CD8+ T cells compared to control [1]: increase in at least one magnitude order |
| B1 | – | binding result [3]: recognises |
| B2 | – | binding result [4]: recognises |
